In ChEMBL document CHEMBL3085687, “Gymnopalynes A and B, chloropropynyl-isocoumarin antibiotics from cultures of the basidiomycete Gymnopus sp” (J Nat Prod, 2013):
pIC50: −log10 of the molar value. ≈ marks a conversion by molar mass, not a printed value. Calls of active or inactive are those of the source. No cut-off for these calls is given here.

Legend:
Staphylococcus aureus [1] = assay: Antibacterial activity against Staphylococcus aureus DSM 346 assessed as growth inhibition; assay type: functional
Paenibacillus polymyxa [2] = assay: Antibacterial activity against Paenibacillus polymyxa DSM 36 assessed as growth inhibition; assay type: functional
Pimelobacter simplex [3] = assay: Antibacterial activity against Nocardioides simplex DSM 20130 assessed as growth inhibition; assay type: functional
Nocardia sp. [4] = assay: Antibacterial activity against Nocardia sp. DSM 43069 assessed as growth inhibition; assay type: functional
[5] = system: Mycolicibacterium diernhoferi; assay: Antibacterial activity against Mycobacterium diernhoferi DSM 43524 assessed as growth inhibition; assay type: functional
Escherichia coli [6] = assay: Antibacterial activity against Escherichia coli DSM 1116 assessed as growth inhibition; assay type: functional
Micrococcus luteus [7] = assay: Antibacterial activity against Micrococcus luteus DSM 20030 assessed as growth inhibition; assay type: functional; conditions: NCTC 2665
[8] = system: Chromobacterium violaceum; assay: Antibacterial activity against Chromobacterium violaceum DSM 30191 assessed as growth inhibition; assay type: functional
L929 = assay: Cytotoxicity against mouse L929 cells; assay type: cell-based
Wickerhamomyces anomalus [9] = assay: Antifungal activity against Pichia anomala DSM 6766 assessed as growth inhibition up to 66.6 ug/mL; assay type: functional, organism-based
[10] = Antifungal activity against Penicillium capsulatum DSM 2210 assessed as growth inhibition up to 66.6 ug/mL; assay type: functional
Candida albicans [11] = assay: Antifungal activity against Candida albicans DSM 1665 assessed as growth inhibition up to 66.6 ug/mL; assay type: functional, organism-based
Staphylococcus aureus [12] = assay: Antibacterial activity against Staphylococcus aureus DSM 346 assessed as growth inhibition up to 66.6 ug/mL; assay type: functional, organism-based
Paenibacillus polymyxa [13] = assay: Antibacterial activity against Paenibacillus polymyxa DSM 36 assessed as growth inhibition up to 66.6 ug/mL; assay type: functional
[14] = system: Mycolicibacterium diernhoferi; assay: Antibacterial activity against Mycobacterium diernhoferi DSM 43524 assessed as growth inhibition up to 66.6 ug/mL; assay type: functional, organism-based
Micrococcus luteus [15] = assay: Antibacterial activity against Micrococcus luteus DSM 20030 assessed as growth inhibition up to 66.6 ug/mL; assay type: functional, organism-based; conditions: NCTC 2665
Escherichia coli [16] = assay: Antibacterial activity against Escherichia coli DSM 1116 assessed as growth inhibition up to 66.6 ug/mL; assay type: functional, organism-based
[17] = Antifungal activity against Trichosporon oleaginosus DSM 11815 assessed as growth inhibition; assay type: functional; conditions: Cutaneotrichosporon oleaginosum
[18] = system: Schizosaccharomyces pombe; assay: Antifungal activity against Schizosaccharomyces pombe DSM 70572 assessed as growth inhibition; assay type: functional
Rhodotorula glutinis [19] = assay: Antifungal activity against Rhodotorula glutinis DSM 10134 assessed as growth inhibition; assay type: functional
Eremothecium coryli [20] = assay: Antifungal activity against Nematospora coryli DSM 6981 assessed as growth inhibition; assay type: functional
Mucor hiemalis = assay: Antifungal activity against Mucor hiemalis DSM 2656 assessed as growth inhibition; assay type: functional
Amorphotheca resinae [21] = assay: Antifungal activity against Hormoconis resinae DSM 1203 assessed as growth inhibition; assay type: functional
Aspergillus clavatus [22] = assay: Antifungal activity against Aspergillus clavatus DSM 816 assessed as growth inhibition; assay type: functional
Pseudomonas aeruginosa [23] = assay: Antibacterial activity against Pseudomonas aeruginosa DSM 50071 assessed as growth inhibition; assay type: functional
[24] = Antifungal activity against Trichosporon oleaginosus DSM 11815 assessed as growth inhibition up to 66.6 ug/mL; assay type: functional; conditions: Cutaneotrichosporon oleaginosum
Rhodotorula glutinis [25] = assay: Antifungal activity against Rhodotorula glutinis DSM 10134 assessed as growth inhibition up to 66.6 ug/mL; assay type: functional, organism-based
[26] = system: Schizosaccharomyces pombe; assay: Antifungal activity against Schizosaccharomyces pombe DSM 70572 assessed as growth inhibition up to 66.6 ug/mL; assay type: functional, organism-based
Amorphotheca resinae [27] = assay: Antifungal activity against Hormoconis resinae DSM 1203 assessed as growth inhibition up to 66.6 ug/mL; assay type: functional, organism-based
Eremothecium coryli [28] = assay: Antifungal activity against Nematospora coryli DSM 6981 assessed as growth inhibition up to 66.6 ug/mL; assay type: functional, organism-based
Aspergillus clavatus [29] = assay: Antifungal activity against Aspergillus clavatus DSM 816 assessed as growth inhibition up to 66.6 ug/mL; assay type: functional, organism-based
Pseudomonas aeruginosa [30] = assay: Antibacterial activity against Pseudomonas aeruginosa DSM 50071 assessed as growth inhibition up to 66.6 ug/mL; assay type: functional, organism-based
Pimelobacter simplex [31] = assay: Antibacterial activity against Nocardioides simplex DSM 20130 assessed as growth inhibition up to 66.6 ug/mL; assay type: functional
Nocardia sp. [32] = assay: Antibacterial activity against Nocardia sp. DSM 43069 assessed as growth inhibition up to 66.6 ug/mL; assay type: functional, organism-based
Wickerhamomyces anomalus [33] = assay: Antifungal activity against Pichia anomala DSM 6766 assessed as growth inhibition; assay type: functional, organism-based
[34] = Antifungal activity against Penicillium capsulatum DSM 2210 assessed as growth inhibition; assay type: functional
Candida albicans [35] = assay: Antifungal activity against Candida albicans DSM 1665 assessed as growth inhibition; assay type: functional, organism-based

| Molecule | MIC (Pimelobacter simplex [3]) [µg/mL] | MIC (Nocardia sp. [4]) [µg/mL] | MIC [8] [µg/mL] | pIC50 (L929) | growth inhibition (GI) (Wickerhamomyces anomalus [9]) | growth inhibition (GI) [10] | growth inhibition (GI) (Candida albicans [11]) | growth inhibition (GI) (Staphylococcus aureus [12]) | growth inhibition (GI) (Paenibacillus polymyxa [13]) | growth inhibition (GI) [14] | growth inhibition (GI) (Micrococcus luteus [15]) | growth inhibition (GI) (Escherichia coli [16]) | MIC [17] [µg/mL] | MIC [18] [µg/mL] | MIC (Rhodotorula glutinis [19]) [µg/mL] | MIC (Eremothecium coryli [20]) [µg/mL] | MIC (Mucor hiemalis) [µg/mL] | MIC (Amorphotheca resinae [21]) [µg/mL] | MIC (Aspergillus clavatus [22]) [µg/mL] | MIC (Pseudomonas aeruginosa [23]) [µg/mL] | further results |
| --- | --- | --- | --- | --- | --- | --- | --- | --- | --- | --- | --- | --- | --- | --- | --- | --- | --- | --- | --- | --- | --- |
| CN(C)[C@@H]1C(O)=C(C(N)=O)C(=O)[C@@]2(O)C(O)=C3C(=O)c4c(O)cccc4[C@@](C)(O)[C@H]3[C@H](O)[C@@H]12.Cl [OXYTETRACYCLINE HYDROCHLORIDE] | 16.6 | 0.25 | 1 |  |  |  |  |  |  |  |  |  |  |  |  |  |  |  |  |  | MIC (Staphylococcus aureus [1]): ≤ 0.25 µg/mL; MIC (Paenibacillus polymyxa [2]): 6.7 µg/mL; MIC [5]: ≤ 0.25 µg/mL; MIC (Escherichia coli [6]): 1 µg/mL; MIC (Micrococcus luteus [7]): 2.1 µg/mL |
| O=c1oc(C#CCCl)cc2ccccc12 | 33.3 (≈ 152 µM) | 67 (≈ 306 µM) | 33.3 (≈ 152 µM) | 5.43 | inactive | inactive | inactive | inactive | inactive | inactive | inactive | inactive | 33.3 (≈ 152 µM) | 16.6 (≈ 75.9 µM) | 33.3 (≈ 152 µM) | 16.6 (≈ 75.9 µM) | 16.6 (≈ 75.9 µM) | 33.3 (≈ 152 µM) | 16.6 (≈ 75.9 µM) | 67 (≈ 306 µM) |  |
| GENTAMICIN |  |  |  |  |  |  |  |  |  |  |  |  |  |  |  |  |  |  |  | 67 |  |
| O=C1O[C@H](C#CCCl)Cc2ccccc21 |  |  | 33.3 (≈ 151 µM) | 4.85 | inactive | inactive | inactive | inactive | inactive | inactive | inactive | inactive |  |  |  |  | 33.3 (≈ 151 µM) |  |  |  | growth inhibition (GI) [24]: inactive; growth inhibition (GI) (Rhodotorula glutinis [25]): inactive; growth inhibition (GI) [26]: inactive; growth inhibition (GI) (Amorphotheca resinae [27]): inactive; growth inhibition (GI) (Eremothecium coryli [28]): inactive; growth inhibition (GI) (Aspergillus clavatus [29]): inactive; growth inhibition (GI) (Pseudomonas aeruginosa [30]): inactive; growth inhibition (GI) (Pimelobacter simplex [31]): inactive; growth inhibition (GI) (Nocardia sp. [32]): inactive |
| NYSTATIN |  |  |  |  |  |  |  |  |  |  |  |  | 1 | 33.3 | 0.52 | 3.3 | 2.1 | < 0.25 | 2.1 |  | MIC (Wickerhamomyces anomalus [33]): 4.2 µg/mL; MIC [34]: 16.6 µg/mL; MIC (Candida albicans [35]): 4.2 µg/mL |
